Results published in patent US20130047297A1, “POLYNUCLEOTIDE MOLECULES FOR GENE REGULATION IN PLANTS” (priority 2010, published 2013).
d = 2'-deoxy (DNA); r = 2'-OH (RNA)

Columns and labels:
Assay type in all cases: in vivo
[1] = system: glyphosate-resistant Palmer amaranth plants; assay: Salts, EDTA, glycerin as additives to polynucleotide spray solutions (Example 35, Tables 26-28); conditions: for enhancing the efficacy of the polynucleotides and potentiating the herbicidal activity of glyphosate: additive in the spray solution
[2] = system: glyphosate-resistant Palmer amaranth containing 16 copies of EPSPS; assay: Glyphosate counter-ions with EPSPS polynucleotides (Example 35, Table 29); conditions: for Palmer control (%) / Palmer height (cm): 1682 g acid equivalent per hectare of the glyphosate salt, with or without EPSPS polynucleotides (IDT [1]-[4]) in 0.5% Silwet L-77, 2% ammonium sulfate, 16 copies of EPSPS, 21 days after treatment; for herbicidal activity compared to the potassium salt: 1682 g acid equivalent per hectare of glyphosate salt with IDT [1]-[4], 21 days after glyphosate treatment
Text: FIG. 38 depicts the effect of varying glyphosate counter-ions on herbicidal activity (presented as percent of weed control/kill, and as plant height) of topically applied polynucleotides (RNA) on glyphosate-resistant Palmer amaranth plants. A mixture of EPSPS polynucleotides (IDT [1] (SEQ ID NO:83-84), IDT [2] (SEQ ID NO:85-86), IDT [3] (SEQ ID NO:87-88), and IDT [4] (SEQ ID NO:89-90)) in 0.5% Silwet L-77, 2% ammonium sulfate in 10 millimolar sodium phosphate buffer, pH 6.8 with 0.2% Roundup® WeatherMax® carrier (MON56151 tallowamine surfactant blend of tallowamine (16-18C) and cocoamine (12-14C) in the ratio of 55:45) and 1682 g acid equivalent per hectare of one of the glyphosate salts; K+ glyphosate, isopropylammonium+ glyphosate or monoethanolammonium+ glyphosate at 215 liters/acre by Milli spray on 3 replicates of 4-6 inch glyphosate-resistant Palmer amaranth containing 16 copies of EPSPS. Plant height was scored at 21 days after glyphos ate treatment.

[3] = system: Palmer amaranth; assay: Combinations of EPSPS, TIF and ddATPase polynucleotides then glyphosate (Example 26, Tables 12 and 13); conditions: protocol 3; 29 g/acre; copy number 16; 13 DAT
Experimental: Solutions of the polynucleotides were prepared and applied to the leaves of Palmer amaranth using the protocols described in Table 12.

[4] = system: Nicotiana benthamiana phytoene desaturase; assay: Topical oligonucleotides/polynucleotides on tobacco, PDS bleaching and chlorophyll (Example 10); conditions: for Chlorophyll (day 12) / Chlorophyll (day 7): 6 spots on the apical area; for Chlorophyll (day 12): buffer control 38.4; for Chlorophyll (day 7): lower values indicate suppression of phytoene desaturase, buffer control 31.2; for Bleaching (day 5): 25 microM each; for systematically regulating (suppressing) the target gene phytoene desaturase: Table 4 treatments; for bleaching of apical leaves (FIG. 15): another assay; for bleaching of apical leaves (FIG. 14): topical treatment
Experimental: The following procedure was used for all assays described in this example. Four-week old Nicotiana benthamiana plants were used in all assays. Plants were treated with 0.1% Silwet L-77 solution freshly made with ddH2O. Two fully expanded leaves per plant (one cotyledon, one true leaf) were dipped into the Silwet L-77 solution for a few seconds, and allowed to dry for 15-30 minutes before application of the polynucleotide composition. Final concentration for each oligonucleotide or polynucleotide was 25 microM (in 0.01% Silwet L-77, 5 mM sodium phosphate buffer, pH 6.8) unless otherwise stated. 20 microliters of the solution was applied to the top surface of each of the two pre-treated leaves to provide a total of 40 microliters (1 nmol oligonucleotide or polynucleotide) for each plant. Leaf bleaching was observed 3 days post treatment.
FIG. 13 illustrates phenotypes observed at day 12 after treatment in another assay of the effect from twelve combinations of polynucleotides or oligonucleotides (see Table 4). Table 4 also lists observations of visible bleaching of the plants at day 5 after treatment and the results of chlorophyll measurements taken at days 7 and 12 after treatment. Chlorophyll measurements are an indication of suppression of the target gene phytoene desaturase, and measurements were taken at 6 spots on the apical area, focussing on visibly bleached leaves or (in plants without visible bleaching) on leaves in equivalent locations on the plants; lower chlorophyll measurement values indicate suppression of phytoene desaturase.

[5] = Table 26: additive to 1% Silwet L-77 spray solution of polynucleotides (RNA), glyphosate
[6] = 2% salt as additive to 1% Silwet L-77 spray solution of topically applied polynucleotides (RNA), glyphosate

Molecule: O=C(O)CN(CCN(CC(=O)O)CC(=O)O)CC(=O)O [EDTA, ethylenediaminetetraacetic acid]
- Palmer control (%) ([1]; Table 26: additive (2% ammonium sulfate; 0.004% EDTA) to 1% Silwet L-77 spray solution of polynucleotides (RNA), glyphosate): 45%
- Palmer height (cm) [1, 5]: 1.0 cm
- enhancing the efficacy of the polynucleotides and potentiating the herbicidal activity of glyphosate [1]: act similarly to 2% ammonium sulfate

Molecule: OCC(O)CO [Glycerin, glycerin]
- enhancing the efficacy of the polynucleotides and potentiating the herbicidal activity of glyphosate [1]: enhance the efficacy of the polynucleotides

Molecule: CC(C)N.O=C(O)CNCP(=O)(O)O [IPA + glyphosate]
- Palmer control (%) [2]: 9%
- Palmer height (cm) [2]: 14.5 cm

Molecule: O=C(O)CNCP(=O)([O-])O.[K+] [K + glyphosate]
- Palmer control (%) [2]: 23%
- Palmer height (cm) [2]: 12.3 cm

Molecule: NCCO.O=C(O)CNCP(=O)(O)O [MEA + glyphosate]
- Palmer control (%) [2]: 9%
- Palmer height (cm) [2]: 14.5 cm

Molecule: Cl.N [ammonium chloride]
- Palmer control (%) [1, 6]: 52%
- Palmer height (cm) [1, 6]: 10.3 cm
- enhancing the efficacy of the polynucleotides and potentiating the herbicidal activity of glyphosate [1]: act similarly to ammonium sulfate

Molecule: N.N.O=S(=O)(O)O [ammonium sulfate]
- Palmer control (%) [1, 6]: 54%
- Palmer height (cm) [1, 6]: 9.3 cm
- Palmer height (cm) [1, 5]: 1.8 cm
- Palmer control (%) ([1]; in vivo): 43%

Molecule: CC(C)N.O=C(O)CNCP(=O)(O)O [isopropylammonium+ glyphosate, reference compound]
- herbicidal activity compared to the potassium salt [2]: better herbicidal activity

Molecule: NCCO.O=C(O)CNCP(=O)(O)O [monoethanolammonium+ glyphosate, reference compound]
- herbicidal activity compared to the potassium salt [2]: better herbicidal activity

Molecule: [Cl-].[Na+] [sodium chloride]
- Palmer control (%) [1, 6]: 15%
- Palmer height (cm) [1, 6]: 15.0 cm

Molecule: O=S(=O)([O-])[O-].[Na+].[Na+] [sodium sulfate]
- Palmer control (%) ([1]; in vivo): 7%
- Palmer height (cm) ([1]; in vivo): 17.0 cm

Molecule: CCCC[P+](CCCC)(CCCC)CCCC.[Br-] [tetrabutylphosphonium bromide]
- enhancing the efficacy of the polynucleotides and potentiating the herbicidal activity of glyphosate [1]: act similarly to ammonium sulfate

Molecule: CC[N+](CC)(CC)CC.[Cl-] [tetraethylammonium chloride]
- Palmer control (%) [1, 6]: 27%
- Palmer height (cm) [1, 6]: 12.0 cm

Molecule: C[N+](C)(C)C.[Cl-] [tetramethylammonium chloride]
- Palmer control (%) ([1]; in vivo): 19%
- Palmer height (cm) ([1]; in vivo): 15.0 cm

Molecule: IDT [1]: Palmer/EPSPS dsRNA, SEQ ID NO. 83, 84 (chain 1 CUACCAUCAACAAUGGUGUCCAUAC; chain 2 GUAUGGACACCAUUGUUGAUGGUAGUA; chain 1: sugars from the 5' end r23 d2, backbone not given here; chain 2: RNA, backbone not given here)
- Results: % stunted [3]: 51% stunted

Molecule: IDT [2]: Palmer/EPSPS dsRNA, SEQ ID NO. 85, 86 (chain 1 AGUUGGUGGGCAAUCAUCAAUUG; chain 2 AACAAUUGAUGAUUGCCCACCAACUCU; chain 1: RNA, 3' dTdT, backbone not given here; chain 2: RNA, backbone not given here)
- Results: % control [3]: 0% control

Molecule: Oligo 3 without T7 promoter: SEQ ID NOs 22, 23; PDS anti-sense 22-mer oligonucleotides without a T7 promoter (antisense 1 CATCTCCTTTAATTGTACTGCC; antisense 2 TTTAATTGTACTGCCATTATTC; listed as DNA, chemistry not given here)
- Chlorophyll (day 12) [4]: 3.2
- Chlorophyll (day 7) [4]: 11.3
- Bleaching (day 5) ([4]; 40 microliters per plant): strong
- systematically regulating (suppressing) the target gene phytoene desaturase [4]: effective
- bleaching of apical leaves (FIG. 15) [4]: strong bleaching
- bleaching of apical leaves (FIG. 14) [4]: Strong bleaching

Molecule: Oligos 1 and 2 without T7 promoter: SEQ ID NOs 18, 19 (chain 1 GCAAGAGATGTCCTAGGTGGG; chain 2 ACAGATTTCTTCAGGAGAAACATGG; DNA, backbone not given here)
- Chlorophyll (day 12) [4]: 41.1
- Chlorophyll (day 7) [4]: 32.0
- Bleaching (day 5) ([4]; 40 microliters per plant): not yet
- systematically regulating (suppressing) the target gene phytoene desaturase [4]: did not suppress

Molecule: PDS 15-mer anti-sense ssDNA: SEQ ID NO:32 (antisense CATCTCCTTTAATTG; DNA, backbone not given here)
- bleaching of apical leaves (FIG. 14) [4]: Little or no visible bleaching

Molecule: PDS 18-mer anti-sense ssDNA: SEQ ID NO:33 (antisense CATCTCCTTTAATTGTAC; DNA, backbone not given here)
- bleaching of apical leaves (FIG. 14) [4]: Little or no visible bleaching

Molecule: PDS 21-mer sense ssDNA: SEQ ID NO:36 (sense GCAGTACAATTAAAGGAGATG; DNA, backbone not given here)
- bleaching of apical leaves (FIG. 15) [4]: Little or no visible bleaching

Molecule: PDS 33-mer anti-sense ssDNA: SEQ ID NO:35 (antisense CATCTCCTTTAATTGTACTGCCATTATTCAGTA; DNA, backbone not given here)
- bleaching of apical leaves (FIG. 14) [4]: Strong bleaching

B1: 200-mer dsRNA polynucleotide: dsRNA corresponding to nucleotides 914-1113 of SEQ ID NO:2 (nucleic acid, listed as Nicotiana benthamiana)
sense: ACAGATTTCTTCAGGAGAAACATGGTTCAAAAATGGCCTTTTTAGATGGTAACCCTCCTGAGAGACTTTGCATGCCGATTGTGGAACATATTGAGTCAAAAGGTGGCCAAGTCAGACTAAACTCACGAATAAAAAAGATCGAGCTGAATGAGGATGGAAGTGTCAAATGTTTTATACTGAATAATGGCAGTACAATTAAA
modifications: complementary strand
- Chlorophyll (day 12) [4]: 4.0
- Chlorophyll (day 7) [4]: 11.3
- Bleaching (day 5) ([4]; 40 microliters per plant): strong
- bleaching of apical leaves (FIG. 12A) ([4]; 200-mer dsRNA at 0.6 microM, oligonucleotides 25 microM each, 40 microliters per plant): Bleaching of apical leaves was observed
- systematically regulating (suppressing) the target gene phytoene desaturase [4]: effective

B2: Oligos 1, 2, and 3 w/o T7 promoter and oligos 4, 5, & 6: SEQ ID NOs 18, 19, 22, 23, 24, 25, 26 (nucleic acid)
chain 1: GCAAGAGATGTCCTAGGTGGG
chain 2: ACAGATTTCTTCAGGAGAAACATGG
chain 3: CATCTCCTTTAATTGTACTGCC
chain 4: TTTAATTGTACTGCCATTATTC
chain 5: CACTTCCATCCTCATTCAGCTCGAT
chain 6: ACACCTCATCTGTCACCCTATCAG
chain 7: CAGTCTCGTACCAATCTCCATCAT
modifications: DNA, backbone not given here
- Chlorophyll (day 12) [4]: 34.4
- Chlorophyll (day 7) [4]: 30.2
- Bleaching (day 5) ([4]; 40 microliters per plant): not yet

B3: PDS 700-mer dsRNA: dsRNA designed from nucleotides 421-1120 of SEQ ID NO:2 (nucleic acid, listed as Nicotiana benthamiana)
DNA: GCAAGAGATGTCCTAGGTGGGAAGGTAGCTGCATGGAAAGATGATGATGGAGATTGGTACGAGACTGGGTTGCACATATTCTTTGGGGCTTACCCAAATATGCAGAACCTGTTTGGAGAACTAGGGATTGATGATCGGTTGCAGTGGAAGGAACATTCAATGATATTTGCGATGCCTAACAAGCCAGGGGAGTTCAGCCGCTTTGATTTTCCTGAAGCTCTTCCTGCGCCATTAAATGGAATTTTGGCCATACTAAAGAACAACGAAATGCTTACGTGGCCCGAGAAAGTCAAATTTGCTATTGGACTCTTGCCAGCAATGCTTGGAGGGCAATCTTATGTTGAAGCTCAAGACGGTTTAAGTGTTAAGGACTGGATGAGAAAGCAAGGTGTGCCTGATAGGGTGACAGATGAGGTGTTCATTGCCATGTCAAAGGCACTTAACTTCATAAACCCTGACGAGCTTTCGATGCAGTGCATTTTGATTGCTTTGAACAGATTTCTTCAGGAGAAACATGGTTCAAAAATGGCCTTTTTAGATGGTAACCCTCCTGAGAGACTTTGCATGCCGATTGTGGAACATATTGAGTCAAAAGGTGGCCAAGTCAGACTAAACTCACGAATAAAAAAGATCGAGCTGAATGAGGATGGAAGTGTCAAATGTTTTATACTGAATAATGGCAGTACAATTAAAGGAGATG
modifications: dsRNA of this region
- bleaching of apical leaves (FIG. 14) [4]: Strong bleaching
